Results taken from patent US12594282B2, “Use of small molecule compounds in the treatment of diseases mediated by lung epithelial cell injury and/or vascular endothelial cell injury” (Guangzhou Cellprotek Pharmaceutical Co., Ltd., priority 2020, dated 2026).
Peptide text beside a SMILES is read from it. * marks the point of attachment. Cbz = O=C(OCc1ccccc1)*

Key:
[1] = tested on: PFKFB3; details: mouse model of LPS-induced pulmonary fibrosis; cited from earlier work
[2] = tested on: human alveolar epithelial A549 cells; details: A549 cells in vitro; cited from earlier work
[3] = tested on: NR4A3; experiment: NR4A3 protein expression under OGD-R, RAOEC (Western blot, immunofluorescence); type: cell-based, rat; details: for degradation of NR4A3 during restoration injury: given together with CHX 100 μM, MG132 10, 30, 100 nM, CQ 10, 30, 100 μM
Experimental: (§1) HUVEC cells were cultured in modified DMEM medium containing 10% fetal bovine serum. When the cells reached about 80% confluence, the cells were digested with 0.25% trypsin, and then pipetted evenly with modified DMEM containing 10% […]. The cell concentration was adjusted to 1×10^5 cells/mL, and the cells were seeded at 400 uL/well in a 24-well plate, and the experiment was carried out when the cells grew to about 70% confluence. RAOEC cells were cultured in high-glucose DMEM medium containing 10% fetal bovine serum, and the seeding conditions were the same as those of HUVEC. During the OGD-R injury treatment, the hypoxia workstation was set to have an oxygen concentration of 1% (1% O2, 5% CO2, 94% N2), a temperature of 37° C., and a humidity of 85%. A sugar-free DMEM medium was placed in the hypoxia workstation for pre-hypoxia for 3 hours. The medium in the culture plate was aspirated, and the plate was washed twice with preheated sugar-free DMEM medium, and 100 uL of sugar-free DMEM medium was added to each well. The culture plate was placed in the hypoxia workstation, and 300 uL of pre-hypoxic sugar-free DMEM medium was added to each well, and then the culture plate was placed in the hypoxia workstation for additional hypoxia for 4 hours. Restoration was then performed. The culture plate was taken out, and the sugar-free DMEM medium was replaced with 400 uL of normal medium containing 10% fetal bovine serum, and then the plate was placed in a 37° C. 5% CO2 cell incubator for culturing for 24 hours or a specified time period. For the cells in the normal group, it was only replaced with 400 uL of new normal medium containing 10% fetal bovine serum. […]
(§2) The cells were washed twice with pre-cooled PBS, then scraped off with a cell scraper and transferred to a 1.5 mL centrifuge tube, and centrifugation was performed at 4° C. and 1000 g for 5 minutes. […] Each protein sample was then quantified using the BCA protein quantification kit. After protein quantification, protein lysis buffer was used to adjust the protein concentration of each sample to be consistent with the protein sample with the lowest concentration, and then each protein sample was sufficiently mixed with 5× protein loading buffer at a ratio of 4:1. […]

[4] = tested on: NR4A3; experiment: NR4A3 protein expression under OGD-R, HUVEC (Western blot, immunofluorescence); type: cell-based, human; details: for degradation of NR4A3 during restoration injury: given together with CHX 100 μM, MG132 10, 30, 100 nM, CQ 10, 30, 100 μM
Experimental: as §1, §2

[5] = tested on: NR4A3; experiment: NR4A3 ubiquitination after OGD-R in vascular endothelial cells (immunoprecipitation with anti-ubiquitin antibodies); type: cell-based; details: YC-6 10 μM; MG132 100 nM; given at restoration
Experimental: as §1
The cells were washed twice with pre-cooled PBS, then scraped off with a cell scraper and transferred to a 1.5 mL centrifuge tube, and centrifugation was performed at 4° C. and 1000 g for 5 minutes. […] Each protein sample was then quantified using the BCA protein quantification kit. After protein quantification, IP lysis buffer was used to adjust the protein concentration of each sample to 1 mg/mL. […]

[6] = 100 μM given during restoration after OGD

Question: For `O=C(/C=C/c1cccnc1)c1ccncc1` [3PO], which “upregulation of PFKFB3 expression and enhanced aerobic glycolysis” value [1] is on record?
Answer: Its value is “could reverse the significant upregulation of PFKFB3 expression and enhanced aerobic glycolysis”.

Question: What about the “LPS-induced apoptosis, inflammatory cytokine production, enhanced glycolytic flux and increased ROS” value [2] of the same compound?
Answer: Its value is “reversed”.

Question: Which “degradation of NR4A3 during restoration injury” value (from here on “degradation”) [3] does the source give for `CCN(CC)CCCC(C)Nc1ccnc2cc(Cl)ccc12` (stereo not drawn) [CQ, Chloroquine] here?
Answer: Its value is “did not significantly inhibit the degradation of NR4A3”.

Question: What about the “degradation” value [4] of the same compound?
Answer: The value was “did not significantly inhibit the degradation of NR4A3”.

Question: With `CC(C)C[C@@H](C=O)NC(=O)[C@H](CC(C)C)NC(=O)[C@H](CC(C)C)NC(=O)OCc1ccccc1` [MG132] (Cbz-Leu-Leu-Leu-aldehyde) as the compound, how does the “ubiquitination modification of NR4A3 induced by restoration” value [5] read?
Answer: Its value is “increase of ubiquitinated NR4A3”.

Question: And the “degradation” value [3]?
Answer: Its value is “could inhibit the degradation of NR4A3”.

Question: What about the “degradation” value [4] of the same compound?
Answer: The value was “could inhibit the degradation of NR4A3”.

Question: Which “NR4A3 protein level during restoration” value [3, 6] does the source give for `C[C@@H]1C[C@@H]([C@H](O)CC2CC(=O)NC(=O)C2)C(=O)[C@@H](C)C1` [CHX, Cycloheximide] here?
Answer: The value was “almost complete depletion of NR4A3 protein”.

Question: And the “NR4A3 protein level during restoration” value [4, 6]?
Answer: Its value is “almost complete depletion of NR4A3 protein”.
